According to patent publication US4333947A, “Substituted imidazoles and their use” (Farmos-Yhtyma Oy, priority 1980, dated 1982):
Like-named read-outs stand apart in the source and are kept apart here.

Tests used:
[1] = acute toxicity, i.v., female mice of NMRI-Strain; details: mouse, in vivo, iv
Description: Acute toxicity was determined by using female mice of NMRI-Strain with an age of about 7 months and weighing 30-40 g. The administration of the test compound was i.v.

E. coli = assay: antibacterial activity in vitro, agar diffusion method, E. coli; type: cell-based, Escherichia coli; details: 100 μg/ml
Description: (§1) The antimicrobial activity was determined in vitro according to a qualitative test for antibacterial and antifungal activity, using the agar diffusion method, against the following standard organisms: Staphylococcus aureus, Streptococcus pyogenes, Escherichia coli, Proteus mirabilis, Pseudomonas aeruginosus, Candida albicans and Aspergillus niger.

Staph. aureus = assay: antibacterial activity in vitro, agar diffusion method, Staph. aureus; type: cell-based, Staphylococcus aureus; details: 100 μg/ml
Description: as §1

[2] = test system: all other bacterial and fungal species; assay: antimicrobial activity in vitro, agar diffusion method, all other bacterial and fungal species (than E. coli and Staph. aureus); type: cell-based; details: 1000 μg/ml
Description: as §1

[3] = test system: isoprenaline-induced chronotropic and inotropic action in the isolated atrium; assay: β-blocking activity in vitro, isoprenaline-induced chronotropic and inotropic action in isolated guinea-pig atrium; type: cell-based; details: Cavia porcellus; 1 μg/ml; read-out: inhibition of isoprenaline-induced chronotropic effect
Description: The β-blocking activity was measured in vitro as follows: The atrium of a guinea-pig was isolated. The inhibiting activity of the compound against isoprenaline-induced chronotropic and inotropic action in the isolated atrium was measured.

Sprague-Dawley rats = assay: blood pressure and pulse frequency in anesthetized rats of normal weight; type: in vivo; details: for minimal effective dose: Rattus norvegicus, iv, anesthetized rats, i.v.
Description: The anti-hypertensive properties of the imidazole derivatives of the present invention have been determined according to the following procedure. Sprague-Dawley rats of normal weight were first anesthetized with urethane. After this, the femoral artery was connected by way of a polyethylene tube with a blood pressure transducer. The test substance was then injected into the femoral vein and the blood pressure and the pulse frequency were registered with a recorder.

[4] = test system: all the bacterial species; assay: antibacterial activity in vitro, agar diffusion method, all bacterial species; type: cell-based; details: 1000 μg/ml
Description: as §1

Candida albicans = assay: antifungal activity in vitro, agar diffusion method, Candida albicans; type: cell-based; details: 1000 μg/ml
Description: as §1

Aspergillus niger = assay: antifungal activity in vitro, agar diffusion method, Aspergillus niger; type: cell-based; details: 1000 μg/ml
Description: as §1

[5] = test system: all standard bacterial and fungal species; assay: antimicrobial activity in vitro, agar diffusion method, all standard bacterial and fungal species; type: cell-based; details: 1000 μg/ml
Description: as §1

rats = assay: diuretic effect in rats, urine output 0-5 hours after i.p. injection; type: in vivo
Description: The diuretic effect was studied in rats by collecting the urine output during 0-5 hours after i.p. injection of the compound. Before the test the rats were fasting overnight and got 10 ml water p.o. immediately before the injection.

[6] = test system: collagen-induced aggregation of thrombocytes; assay: antithrombotic activity in vitro, collagen-induced aggregation of thrombocytes; type: cell-based; details: cow thrombocytes, 10 min incubation
Description: (§2) In a further test the antithrombotic activity was investigated in vitro. The inhibiting activity of the compounds against ADP- and collagen-inducedaggregation of thrombocytes was measured. In the test thrombocytes from a cow was used. To 1.2 ml of plasma containing 250000 thrombocytes/mm^3 were added 50 μl of a solution of the compound to be tested. After 10 min incubation either ADP or collagen was added. The aggregation of the thrombocytes was turbidimetrically determined at λ=605 n m.

[7] = test system: ADP-induced aggregation of thrombocytes; assay: antithrombotic activity in vitro, ADP-induced aggregation of thrombocytes; type: cell-based; details: cow thrombocytes, 10 min incubation
Description: as §2

fungi = assay: antifungal activity in vitro, agar diffusion method, fungi; type: cell-based, Candida albicans and Aspergillus niger; details: 1000 μg/ml
Description: as §1

[8] = test system: arachidonic acid induced pulmonary thromboembolism; assay: antithrombotic activity in vivo, arachidonic acid induced pulmonary thromboembolism in mice; details: 10 mg/kg p.o.
Description: The antithrombotic activity was investigated in vivo in mice as follows: The compounds to be tested were administered orally. After this arachidonic acid was given i.v. The inhibiting activity of the test compounds against arachidonic acid induced pulmonary thromboembolism was investigated.

[9] = read-out: dose i.v. causing a registrable lowering of the blood pressure
[10] = 1 mg/kg, 20 minutes after administration
[11] = 300 μg/kg i.v., 20 minutes after administration

Cc1cccc(C)c1CCCC=Cc1c[nH]cn1 [4-[5-(2',6'-Dimethylphenyl)-1-pentenyl]-imidazole]
LD50 [1]: 40 mg/kg | activity against E. coli (E. coli): active | activity against Staph. aureus (Staph. aureus): active | activity against all other bacterial and fungal species [2]: active | inhibition at 1 µg/mL [3]: 57%

Cc1cccc(C)c1CC=Cc1c[nH]cn1 [4-[3-(2',6'-Dimethylphenyl)-1-propenyl]-imidazole]
decrease of the blood pressure (Sprague-Dawley rats; 1-3 mg/kg i.v., 20 minutes after administration): 20% | LD50 [1]: 75 mg/kg

Cc1[nH]cnc1C=Cc1c(Cl)cccc1Cl [4-[2-(2',6'-Dichlorophenyl)-ethenyl]-5-methyl-imidazole]
lowering of the blood pressure (Sprague-Dawley rats; 3 mg/kg i.v., 20 minutes after administration): 30% | minimal effective dose (Sprague-Dawley rats; read-out: dose i.v. at which a decrease of pulse frequency was noticed): 1 mg/kg | minimal effective dose (Sprague-Dawley rats; [9]): 0.3 mg/kg | LD50 [1]: 100 mg/kg | activity against all the bacterial species [4]: active | activity against Candida albicans (Candida albicans): active | activity against Aspergillus niger (Aspergillus niger): inactive

Clc1cccc(Cl)c1C=Cc1c[nH]cn1 [4-[2-(2',6'-Dichlorophenyl)-ethenyl]-imidazole]
decrease of pulse frequency (Sprague-Dawley rats; [10]): 30% | lowering of the blood pressure (Sprague-Dawley rats; [10]): 25% | LD50 [1]: 85 mg/kg | antimicrobial activity against all standard bacterial and fungal species [5]: active | diuretic effect (5h) (rats; 0.005 mg/kg i.p.): 128% | diuretic effect (5h) (rats; 0.05 mg/kg i.p.): 132% | diuretic effect (5h) (rats; 0.5 mg/kg i.p.): 135%

Cc1cccc(CC=Cc2c[nH]cn2)c1C [4-[3-(2',3'-Dimethylphenyl)-1-propenyl]-imidazole]
decrease of the blood pressure (Sprague-Dawley rats; 0.3-1 mg/kg i.v., 20 minutes after administration): 20% | LD50 [1]: 75 mg/kg | inhibition of collagen-induced thrombocyte aggregation [6]: completely | inhibition of ADP-induced thrombocyte aggregation [7]: clearly

Cc1[nH]cnc1C=Cc1ccccc1Cl [4-[2-(2'-Chlorophenyl)-ethenyl]-5-methyl-imidazole]
LD50 [1]: 85 mg/kg | activity against all the bacterial species [4]: active | activity against the fungi (fungi): not against the fungi | inhibition at 1 µg/mL [3]: 67% | mice protected from arachidonic acid-induced pulmonary thromboembolism [8]: 4 of 5

Cc1cccc(C)c1/C=C/c1c[nH]cn1 [4-[2-(2',6'-Dimethylphenyl)-ethenyl]-imidazole]
decrease of pulse frequency (Sprague-Dawley rats; [11]): 24% | reduction of the blood pressure (Sprague-Dawley rats; [11]): 20% | minimal effective dose (Sprague-Dawley rats; [9]): 0.01 mg/kg | LD50 [1]: 50 mg/kg
